The values that follow come from PMC12707061 (National Science Review, 2025).

Data set [1] relates to mice. The data set can be described thus: TST, FST and OFT in mice with ketamine and pre-treatments. The settings on record: for locomotion and anxiety-like behaviors during the OFT: 1 h after injection; for effect of pre-treatment on ketamine's decrease of immobility in TST and FST: p-CPA i.p. once per day for 3 days, palonosetron into mPFC 0.5 h before ketamine. How it is done: Behavioral experiments were performed after 3-4 weeks of viral expression.
For behavioral experiments, C57BL/6 mice were recovered for at least 7 days before behavioral testing. Before micro-infusions, a 26-gauge internal injector with 3 mm projection was placed into the guide cannula, connected via PE tubing to a Hamilton micro-syringe driven by hand. […] The injector cannula was removed 3 min after infusion was finished, and corresponding behavioral tests were performed.
The mice were suspended in a computerized device allowing four animals to be recorded at one time, and were separated in a chamber, both acoustically and visually isolated. To ensure mice could not contact or climb with other things, an individual mouse was suspended 50 cm above the floor by a tail tape that was placed approximately 1 cm from the tip of the tail. The activities of the animals were recorded for 6 minutes by a video recorder. The total duration of immobility at the last 4 minutes of testing time was analyzed by one who was blinded to the test.
The FST apparatus was a clear glass tank (40 cm high and 20 cm in diameter) filled with water (25-26 °C), and the water depth was set to ensure mice could not touch the bottom with their tails or hind limbs. Mice were placed individually into the apparatus and allowed to swim for 6 minutes. The mice were considered immobile when floating in the water without struggling and making only those movements necessary to keep their heads above the water. Total immobility times during the last 4 minutes of the 6-minute testing period were analyzed by a researcher blinded to the test.
Mice were placed in a white open field chamber (38 x 38 x 40 cm) built by an acrylic plate in a room with dim light. The movement of each animal was tracked by a video camera positioned directly above the chamber (Jiliang, Shanghai). Time spent in the center zone of the chamber was a measure of anxiety behavior. Mice were allowed to move freely for 5 minutes in the arena. Total distance and center zone time were automatically analyzed by software (Jiliang, Shanghai).

The test system of data set [2] is mPFC VIP neurons. The data set can be described thus: Patch-clamp recordings of mPFC VIP neurons in slices after in vivo drug injection. The arrangement: species or system mice. Particulars: for resting membrane potential (RMP) of VIP neurons, average: saline controls −58.8 mV. As to the method: The brain was removed quickly after decapitation and immediately put into ice-cold oxygenated NMDG ACSF. A few minutes later, coronal slices containing the mPFC (300 μm thickness for mice) were sectioned in cold ACSF using a vibratome (VT1200 S, Leica) and then transferred into oxygenated NMDG ACSF at 32°C for incubation and recovery for 10–15 min. […] All chemicals were purchased from Sigma–Aldrich (St. Louis, MO, USA).
(§1) All drugs were dissolved in 0.9% saline and administered by intraperitoneal (i.p.) injection.
For in intro brain slices recording, AAV-Ef1α-DIO-mCherry virus was injected in the mPFC for labeling VIP neurons, and a 26-gauge double guide cannula (center-to-center distance 0.80 mm; RWD, China) was subsequently implanted in the same site of Vip-Cre mice.
For mPFC VIP neuron recordings, brain slices were transferred into the recording chamber filled with ACSF. VIP positive neurons were visualized with differential interference contrast optics (DIC, Olympus BX61WI). The recording pipettes (4-5 MΩ) were pulled with a micropipette puller (P97, Sutter Instrument; USA). […] When the whole-cell record was formed, to record the neuronal firing, the neurons were held at I=0 pA under current-clamp mode; to measure the intrinsic membrane properties, the same neurons were held at […] and spikes were induced by increases of current injection (each step was 5 pA, range –10-45 pA). All recordings were performed for 5 minutes typically.
The specific operation is as follows: using the Threshold search function in the Clampfit software Event Detection, setting the baseline and threshold for identifying the action potential, and then automatically identifying and measuring each action potential. The curve of firing was plotted using MATLAB. All events, including the spike numbers, were finally verified by eye.
A general note: Patch clamp records ionic current or voltage across a cell membrane.

Data set [3] deals with mPFC VIP neurons. The data set can be described thus: Whole-cell recordings of mPFC VIP neurons with bath application of drugs to brain slices. It counts as cell-based, mice. The settings on record: for activation (firing) of VIP neurons: bath application, 5-HT 5 μM, AP5 100 μM, slices from normal mice. As to the method: Adult (10–16 weeks old) VIP-Cre-expressing mCherry mice with or without a cannula were firstly anesthetized by being injected intraperitoneally with tribromoethanol (250 mg/kg) and then perfused transcardially with 20 mL of ice-cold N-methyl-D-glucamine (NMDG) artificial cerebrospinal fluid (ACSF) solution (oxygenated with 5% CO2 + 95% O2) containing (mM): 93 NMDG, 93 HCl, 2.5 KCl, 10 MgSO4·7H2O, 1.2 NaH2PO4·2H2O, 30 NaHCO3, 25 glucose, 20 HEPES, 5 sodium ascorbate, 3 sodium pyruvate and 2 thioureas, with 0.5 CaCl2·2H2O added (pH: 7.35, 303 mOsm). The brain was removed quickly after decapitation and immediately put into ice-cold oxygenated NMDG ACSF. A few minutes later, coronal slices containing the mPFC (300 μm thickness for mice) were sectioned in cold ACSF using a vibratome (VT1200 S, Leica) and then transferred into oxygenated NMDG ACSF at 32°C for incubation and recovery for 10–15 min. The brain slices were transferred to a normal oxygenated ACSF solution (126 mM NaCl, 2.5 mM KCl, 2 mM MgSO4·7H2O, 1.25 mM NaH2PO4·2H2O, 25 mM NaHCO3, 10 mM glucose, 2 mM CaCl2) at room temperature for 1 h. All chemicals were purchased from Sigma–Aldrich (St. Louis, MO, USA).
For mPFC VIP neuron recordings, brain slices were transferred into the recording chamber filled with ACSF. VIP positive neurons were visualized with differential interference contrast optics (DIC, Olympus BX61WI). The recording pipettes (4-5 MΩ) were pulled with a micropipette puller (P97, Sutter Instrument; USA). For whole-cell patch-clamp recording, the pipette was filled with an internal solution containing (mM) 133 potassium gluconate, 18 NaCl, 0.6 EGTA, 2 Mg·ATP, 0.3 Na3·GTP, 10 Hepes (pH: 7.20, 280-290 mOsm). […]
To investigate the underlying synergistic effects of 5-HT (5 μM, Sigma) and AP5 (100 μM, Sigma) on neuronal excitability and firing, the two drugs were alone or together continuously perfused into the recording chamber using a medicine delivery pipe after a baseline was recorded for 5 min. The spikes were recorded under […] 1 minute after the drugs were delivered. […]

Data set [4] deals with mPFC VIP neurons expressing the hM4Di receptor. The data set can be described thus: Cell-attached recording of hM4Di-expressing mPFC VIP neurons in brain slices. It counts as cell-based, mice. Particulars: 10 μM. How it is done: In the chemogenetic inhibition assay, we injected the AAV-DIO-hM4Di-mCherry vector into the bilateral mPFC of VIP-Cre mice. […] Behavioral experiments were performed after mice had been allowed to recover for 3 weeks after viral injection (Fig. 5A).

Data set [5] concerns mice. The data set can be described thus: MK-801 alone and with fluoxetine: behavioural tests 24 h after injection. Type of data set: in vivo. The settings on record: single injection, alone. How it is done:
as §1

A further data set relates to SST neurons in the mPFC. The experiment in a line: Activation/excitability of mPFC SST neurons after ketamine (c-Fos, patch-clamp). It counts as in vivo, mice. Particulars: after ketamine injection. How it is done:
(§2) VIP, parvalbumin (PV) and somatostatin (SST) neurons are the three main types of gamma-aminobutyric acid (GABA)ergic interneurons in the mPFC [63].
(§3) All mice were deeply anesthetized with an overdose of pentobarbital and then transcardially perfused with 0.9% saline solution followed by 4% paraformaldehyde (PFA) in PBS. After 24 h of post-fixation in 4% PFA overnight at 4 °C, brains were subsequently immersed in a 30% sucrose solution for dehydration for 24-48 h. Brains were sectioned coronally at a thickness of 40 μm with a Vibration Microtome (Leica VT1200S). Coronal brain sections were washed in PBS, blocking solution containing 0.5% Triton X-100 and 5% normal bovine serum albumin was dissolved in 1x PBS. After blocking for 1-2 h and washing, brain sections were incubated with the primary antibody rabbit polyclonal anti-c-Fos (1:1000, Synaptic system) for 48 h at 4 °C. After washing, these brain sections were incubated with secondary antibody Alexa Fluor 594-conjugated donkey anti-rabbit IgG (1:1000, Jackson ImmunoResearch) at […]. Cell nuclei were identified using the 4, 6-diamidino-2-phenylindole (DAPI) stain (1:10000, Jackson ImmunoResearch). Imaging was carried out with a digital slide scanner (Olympus, VS120-S6-W) and a confocal microscope (Nikon, Ti-E+A1R SI).

In a further data set the test system is VIP neurons in the mPFC. The data set can be described thus: c-Fos immunolabeling of mPFC VIP neurons after ketamine. It counts as in vivo, mice. The settings on record: antidepressant dose; 1.5 h after injection; average. How it is done: as §2, §3
The test system of a further data set is PV neurons in the mPFC. The experiment in a line: Activation/excitability of mPFC PV neurons after ketamine (c-Fos, patch-clamp). Particulars: after ketamine injection. Type of data set: in vivo, mice. As to the method:
as §2, §3

In data set [6] the test system is 5-HT neurons in the dorsal raphe nucleus (DRN). The data set can be described thus: c-Fos activation of DRN 5-HT neurons after ketamine. It counts as in vivo, mice. Particulars: after ketamine injection. As to the method: as §3
For another data set, the system named is mPFC 5-HT. The data set can be described thus: In vivo real-time microdialysis of mPFC 5-HT. The arrangement: species or system mice. Particulars: i.p. 10 mg/kg; during the 15 min after injection; baseline ∼100%.
The mark [7] stands for this setting: palonosetron into mPFC before ketamine.

With `NC(Cc1ccc(Cl)cc1)C(=O)O` (racemic) [p-CPA, 4-chloro-DL-phenylalanine], in the data set on mice [1], the “locomotion and anxiety-like behaviors during the OFT” value was “did not affect locomotion or cause anxiety-like behaviors”; the “effect of pre-treatment on ketamine's decrease of immobility in TST and FST” value was “attenuated the ketamine-related decrease in the duration of immobility”. In the data set on mPFC VIP neurons [2] (1 h after injection), the “number of spikes in response to depolarizing current pulses” value was “decreased” and the “resting membrane potential (RMP) of VIP neurons, average” value (from here on “resting membrane potential (RMP)”) was −69.7 mV.
`NCCc1c[nH]c2ccc(O)cc12` [5-HT, serotonin]: the “activation (firing) of VIP neurons” value with mPFC VIP neurons [3] is reported as “did not activate VIP neurons”.
With `NC(CCCP(=O)(O)O)C(=O)O` (centres unmarked) [AP5], the “activation (firing) of VIP neurons” value in the data set on mPFC VIP neurons [3] is “did not activate VIP neurons”. For the same compound, the “resting membrane potential (RMP)” value in the data set with mPFC VIP neurons [2] (1 h after injection) was “–65.1 mV”.
Turning to `C[N+]1([O-])CCN(C2=Nc3cc(Cl)ccc3Nc3ccccc32)CC1` [CNO, clozapine N-oxide], in data set [4], the “mPFC VIP neuron activity in brain slices” value is given as “significantly inhibited”.
Regarding `C[C@]12N[C@H](Cc3ccccc31)c1ccccc12` [MK-801], the “antidepressant effects after 24 h” value in the data set with mice [5] is on record as “does not result in antidepressant effects”.
Same read-out and setting: in the case of `CNCCC(Oc1ccc(C(F)(F)F)cc1)c1ccccc1` (centres unmarked) [fluoxetine] it was “does not result in antidepressant effects”.
Take `CNC1(c2ccccc2Cl)CCCCC1=O` (centres unmarked) [ketamine]: the “changes in electrophysiological characteristics of excitability of SST neurons” value in the data set with SST neurons in the mPFC is on record as “neither PV nor SST neurons showed any changes”. Also, the “VIP neurons activated (c-Fos+ among VIP neurons)” value in the data set with VIP neurons in the mPFC stood at 38.8%. Further, the “changes in electrophysiological characteristics of excitability of PV neurons” value in the data set with PV neurons in the mPFC was “neither PV nor SST neurons showed any changes”. In the data set on mPFC VIP neurons [2] (1 h after injection), the “number of spikes in response to depolarizing current pulses” value was “remarkable increase” and the “resting membrane potential (RMP)” value is given as −44.2 mV. In the data set with mPFC VIP neurons [2] (1 h after injection, ketamine 10 mg/kg i.p., p-CPA 150 mg/kg once daily 3 days, AP5 40 nmol mPFC, fluoxetine 10 mg/kg i.p.), the “percentage of firing VIP neurons” value came to 75%. In addition, the “membrane capacitance of VIP neurons” value with mPFC VIP neurons [2] (firing neurons after ketamine) is reported as “no change in membrane capacitance”. Moreover, the “activation of DRN 5-HT neurons” value in [6] was “did not activate”.
Regarding `CC12CC3CC(C)(C1)CC(N)(C3)C2` [memantine], the “average relative-to-baseline 5-HT levels in the mPFC” value with mPFC 5-HT was “did not show such an effect”.
As to `O=C1c2cccc3c2[C@H](CCC3)CN1[C@@H]1CN2CCC1CC2` [palonosetron], the “effect on VIP neuron activation by 5-HT combined with AP5” value in the data set on mPFC VIP neurons [3] (palonosetron 10 μM) is listed as “blocked the effect of 5-HT combined with AP5”. Further, in the data set with mice [1], the “locomotion and anxiety-like behaviors during the OFT” value is given as “did not affect locomotion or cause anxiety-like behaviors”; the “effect of pre-treatment on ketamine's decrease of immobility in TST and FST” value is “this effect was blocked”. For the same compound, the “percentage of firing VIP neurons” value with mPFC VIP neurons [2] (palonosetron into mPFC 0.5 h before ketamine i.p., controls ∼10.5%) is recorded as about 10%. Also, in the data set on mPFC VIP neurons [2] (setting [7]), the “change in RMP of VIP neurons” value is on record as “no change in the RMP”, the “change in membrane capacitance of VIP neurons” value is listed as “moderate increase in membrane capacitance” and the “change in membrane resistance of VIP neurons” value is “no change in membrane resistance”.
